Here are results for ten compounds from patent publication EP4603105A1, “PHARMACEUTICAL COMPOSITION CONTAINING CYCLIC COMPOUND HAVING SELECTIVE KRAS INHIBITORY EFFECT AGAINST HRAS AND NRAS” (CHUGAI SEIYAKU KABUSHIKI KAISHA, priority 2022, dated 2024).

Where a SMILES comes first, the peptide text is derived from it. Bridges are numbered along the chain shown (N, C = ends). [ ]: non-standard residue; d: D form. The star is where a group is joined. hPhe(3,5-F2-4-CF3) = N[C@@H](CCc1cc(F)c(C(F)(F)F)c(F)c1)C(=O)O; NPrPhe(4-CF3) = CCCN[C@@H](Cc1ccc(C(F)(F)F)cc1)C(=O)O; NMeAbu(4,4,4-F3) = CN[C@@H](CC(F)(F)F)C(=O)O; NMeGly(cPent) = CN[C@H](C(=O)O)C1CCCC1; Ac4c(3,3-F2) = NC1(C(=O)O)CC(F)(F)C1; Nva(3-Et) = CCC(CC)[C@H](N)C(=O)O; NMeD = CN[C@@H](CC(=O)O)C(=O)O; Ac4c(3-oxa) = NC1(C(=O)O)COC1; NMeL = CN[C@@H](CC(C)C)C(=O)O; Iva = CC[C@](C)(N)C(=O)O; Morpholide = C1CN(*)CCO1; Ac5c = NC1(C(=O)O)CCCC1; Aze = O=C(O)[C@@H]1CCN1; Sar = CNCC(=O)O

For test [1], the system named is human lung cancer strain NCI-H441. In kind it is cell-based. A digest of the protocol: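 Readout: […] after the ATP-based reagent. Compound: serial dilutions in dimethyl sulfoxide.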
For test [2], the target named is GDP-bound NRAS wild-type protein (Homo sapiens, UniProt P01111). Nature of the test: Binding to NRAS by surface plasmon resonance (SPR), KD and KD ratio to KRAS. To be noted: ratio of KD for GDP-bound NRAS wild-type protein to KD for KRAS. A digest of the protocol:
(§1)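 Affinity is measured by surface plasmon resonance at 30°C against captured, GDP-loaded RAS carrying a biotinylated Avi tag. Compounds are titrated by single-cycle kinetics, and KD comes from a 1:1 fit.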
Background: In SPR one partner is held on a chip, and binding of the other changes the refractive index at the surface.

The next test deals with HRAS wild-type protein (Homo sapiens, UniProt P01112). Nature of the test: Binding to HRAS by surface plasmon resonance (SPR), KD and KD ratio to KRAS. The following applies: ratio of KD for HRAS wild-type protein to KD for KRAS. Summed up:
as §1

GDP-bound NRAS wild-type protein, sequence (P01111 whole entry): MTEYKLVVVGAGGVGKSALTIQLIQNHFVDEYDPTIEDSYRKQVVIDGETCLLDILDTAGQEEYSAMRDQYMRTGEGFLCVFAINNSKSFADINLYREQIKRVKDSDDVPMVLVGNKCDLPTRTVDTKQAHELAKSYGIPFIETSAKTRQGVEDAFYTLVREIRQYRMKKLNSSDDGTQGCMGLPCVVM
HRAS wild-type protein, sequence (P01112 whole entry): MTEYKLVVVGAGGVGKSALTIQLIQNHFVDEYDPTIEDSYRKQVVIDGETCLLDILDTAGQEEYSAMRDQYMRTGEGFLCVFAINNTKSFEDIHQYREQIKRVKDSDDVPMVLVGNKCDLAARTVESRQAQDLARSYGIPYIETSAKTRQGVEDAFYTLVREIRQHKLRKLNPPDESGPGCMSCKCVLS

As a reminder, the IC50 is the concentration that inhibits the measured activity by half. Low values mean higher potency, high ones lower potency. Consider `CCCN1C(=O)[C@@H]2CCN2C(=O)CN(C)C(=O)[C@H]([C@@H](C)CC)NC(=O)[C@H](CC(C)C)N(C)C(=O)C[C@@H](C(=O)N2CCOCC2)N(C)C(=O)[C@H](C2CCCC2)N(C)C(=O)C2(COC2)NC(=O)[C@@H]2CCCN2C(=O)[C@H](CCc2cc(F)c(C(F)(F)F)c(F)c2)NC(=O)CN(C)C(=O)[C@@H]1Cc1ccc(C(F)(F)F)cc1` [PP0801] ([NMeL]I[Sar][Aze][NPrPhe(4-CF3)][Sar][hPhe(3,5-F2-4-CF3)]P[Ac4c(3-oxa)][NMeGly(cPent)][NMeD]-Morpholide; lactam N-11), for which, in test [1], the IC50 worked out at 28.7 nM. In addition, the “NRAS /KRAS” value in test [2] is “C (A compound having a KD ratio of 0.1 or more and less than 3 is denoted as C)”. In addition, on HRAS wild-type protein, the “HRAS /KRAS” value was “B (a compound having 3 or more and less than 10 is denoted as B)”.

As to `CCCN1C(=O)[C@@H]2CCN2C(=O)CN(C)C(=O)[C@H]([C@@H](C)CC)NC(=O)[C@H](CC(C)C)N(C)C(=O)C[C@@H](C(=O)N2CCOCC2)N(C)C(=O)[C@H](C2CCCC2)N(C)C(=O)C2(CC(F)(F)C2)NC(=O)[C@@H]2CCCN2C(=O)[C@H](CCc2cc(F)c(C(F)(F)F)c(F)c2)NC(=O)CN(C)C(=O)[C@@H]1Cc1ccc(C(F)(F)F)cc1` [PP0802] ([NMeL]I[Sar][Aze][NPrPhe(4-CF3)][Sar][hPhe(3,5-F2-4-CF3)]P[Ac4c(3,3-F2)][NMeGly(cPent)][NMeD]-Morpholide; lactam N-11), 6.5 nM corresponded to half-maximal inhibition in test [1] (IC50). Besides, in test [2], the “NRAS /KRAS” value was “C (A compound having a KD ratio of 0.1 or more and less than 3 is denoted as C)”. For the same compound, the “HRAS /KRAS” value on HRAS wild-type protein was “B (a compound having 3 or more and less than 10 is denoted as B)”.

Regarding `CCCN1C(=O)[C@@H]2CCN2C(=O)CN(C)C(=O)[C@H]([C@@H](C)CC)NC(=O)[C@H](CC(C)C)N(C)C(=O)C[C@@H](C(=O)N2CCOCC2)N(C)C(=O)[C@H](CC(F)(F)F)N(C)C(=O)C2(CCCC2)NC(=O)[C@@H]2CCCN2C(=O)[C@H](CCc2cc(F)c(C(F)(F)F)c(F)c2)NC(=O)CN(C)C(=O)[C@@H]1Cc1ccc(C(F)(F)F)cc1` [PP0803] ([NMeL]I[Sar][Aze][NPrPhe(4-CF3)][Sar][hPhe(3,5-F2-4-CF3)]P[Ac5c][NMeAbu(4,4,4-F3)][NMeD]-Morpholide; lactam N-11), inhibition in test [1] was half-maximal at 52.5 nM (IC50). Also, the “NRAS /KRAS” value in test [2] was “C (A compound having a KD ratio of 0.1 or more and less than 3 is denoted as C)”. Also, at HRAS wild-type protein, the “HRAS /KRAS” value is “B (a compound having 3 or more and less than 10 is denoted as B)”.

In turn, `CCCN1C(=O)[C@@H]2CCN2C(=O)CN(C)C(=O)[C@H](C(CC)CC)NC(=O)[C@H](CC(C)C)N(C)C(=O)C[C@@H](C(=O)N2CCOCC2)N(C)C(=O)[C@H](C2CCCC2)N(C)C(=O)C2(CCCC2)NC(=O)[C@@H]2CCCN2C(=O)[C@H](CCc2cc(F)c(C(F)(F)F)c(F)c2)NC(=O)CN(C)C(=O)[C@@H]1Cc1ccc(C(F)(F)F)cc1` [PP0804] ([NMeL][Nva(3-Et)][Sar][Aze][NPrPhe(4-CF3)][Sar][hPhe(3,5-F2-4-CF3)]P[Ac5c][NMeGly(cPent)][NMeD]-Morpholide; lactam N-11) had an IC50 in test [1] of 40.9 nM. Further, in test [2], the “NRAS /KRAS” value is “C (A compound having a KD ratio of 0.1 or more and less than 3 is denoted as C)”. The “HRAS /KRAS” value at HRAS wild-type protein is “B (a compound having 3 or more and less than 10 is denoted as B)”.

For `CCCN1C(=O)CN(C)C(=O)CN(C)C(=O)[C@H]([C@@H](C)CC)NC(=O)[C@H](CC(C)C)N(C)C(=O)C[C@@H](C(=O)N(C)C)N(C)C(=O)[C@H](C2CCCC2)N(C)C(=O)[C@](C)(CC)NC(=O)[C@@H]2CCCN2C(=O)[C@H](CCc2cc(F)c(C(F)(F)F)c(F)c2)NC(=O)CN(C)C(=O)[C@@H]1Cc1ccc(C(F)(F)F)cc1` [PP0805] ([NMeL]I[Sar][Sar][NPrPhe(4-CF3)][Sar][hPhe(3,5-F2-4-CF3)]P[Iva][NMeGly(cPent)][NMeD]-NMe2; lactam N-11), the half-maximal inhibitory concentration (IC50) in test [1] was found to be 10.3 nM. Moreover, in test [2], the “NRAS /KRAS” value was “B (a compound having 3 or more and less than 10 is denoted as B)”. Besides, the “HRAS /KRAS” value on HRAS wild-type protein was “C (A compound having a KD ratio of 0.1 or more and less than 3 is denoted as C)”.

Take `CCO[C@@H]1C[C@H]2C(=O)NC3(CCC3)C(=O)N(C)[C@@H](C3CCCC3)C(=O)N(C)[C@H](C(=O)N3CCOCC3)CC(=O)N(C)[C@@H](CC(C)C)C(=O)N[C@@H](C3CC(F)(F)C3)C(=O)N(C)CC(=O)N(C)[C@H]3CCCCN(C3=O)[C@@H](Cc3ccc(C(F)(F)F)cc3)C(=O)N(C)CC(=O)N[C@@H](CCc3cc(F)c(C(F)(F)F)c(F)c3)C(=O)N2C1` [PP0807]: in test [1], 16.7 nM corresponded to half-maximal inhibition (IC50). Also, the “NRAS /KRAS” value in test [2] was “B (a compound having 3 or more and less than 10 is denoted as B)”. Further, at HRAS wild-type protein, the “HRAS /KRAS” value was “B (a compound having 3 or more and less than 10 is denoted as B)”.

Regarding `CC[C@H](C)[C@@H]1NC(=O)[C@H](CC(C)C)N(C)C(=O)C[C@@H](C(=O)N2CCOCC2)N(C)C(=O)[C@H](C2CCCC2)N(C)C(=O)C2(CCC2)NC(=O)[C@]2(C)CCCN2C(=O)[C@H](CCc2cc(F)c(C(F)(F)F)c(F)c2)NC(=O)CN(C)C(=O)[C@H](Cc2ccc(C(F)(F)F)cc2)N2CCCC[C@@H](C2=O)N(C)C(=O)CN(C)C1=O` [PP0808], in test [1], the midpoint of inhibition, the IC50, lay at 16.7 nM. In test [2], the “NRAS /KRAS” value is “B (a compound having 3 or more and less than 10 is denoted as B)”. Moreover, the “HRAS /KRAS” value on HRAS wild-type protein was “B (a compound having 3 or more and less than 10 is denoted as B)”.

`CC[C@H](C)[C@@H]1NC(=O)[C@H](CC(C)C)N(C)C(=O)C[C@@H](C(=O)N2CCOCC2)N(C)C(=O)[C@H](C2CCCC2)N(C)C(=O)C2(CCC2)NC(=O)[C@@H]2C[C@@H](C(F)(F)F)CN2C(=O)[C@H](CCc2cc(F)c(C(F)(F)F)c(F)c2)NC(=O)CN(C)C(=O)[C@H](Cc2ccc(C(F)(F)F)cc2)N2CCCC[C@@H](C2=O)N(C)C(=O)CN(C)C1=O` [PP0809]: inhibition in test [1] was half-maximal at 8.4 nM (IC50). Besides, in test [2], the “NRAS /KRAS” value was “B (a compound having 3 or more and less than 10 is denoted as B)”. Also, the “HRAS /KRAS” value on HRAS wild-type protein is “B (a compound having 3 or more and less than 10 is denoted as B)”.

Turning to `CC[C@H](C)[C@@H]1NC(=O)[C@H](CC(C)C)N(C)C(=O)C[C@@H](C(=O)N2CCOCC2)N(C)C(=O)[C@H](C2CCCC2)N(C)C(=O)C2(CCC2)NC(=O)[C@@H]2[C@H]3C[C@H]3CN2C(=O)[C@H](CCc2cc(F)c(C(F)(F)F)c(F)c2)NC(=O)CN(C)C(=O)[C@H](Cc2ccc(C(F)(F)F)cc2)N2CCCC[C@@H](C2=O)N(C)C(=O)CN(C)C1=O` [PP0810], the IC50 in test [1] stood at 12.8 nM. The “NRAS /KRAS” value in test [2] was “B (a compound having 3 or more and less than 10 is denoted as B)”. The “HRAS /KRAS” value on HRAS wild-type protein is “B (a compound having 3 or more and less than 10 is denoted as B)”.

`CCO[C@@H]1C[C@H]2C(=O)NC3(CCC3)C(=O)N(C)[C@@H](C(CC)CC)C(=O)N(C)[C@H](C(=O)N3CCOCC3)CC(=O)N(C)[C@@H](CC(C)C)C(=O)N[C@@H]([C@@H](C)CC)C(=O)N(C)CC(=O)N(C)[C@H]3CCCCN(C3=O)[C@@H](Cc3ccc(C(F)(F)F)cc3)C(=O)N(C)CC(=O)N[C@@H](CCc3cc(F)c(C(F)(F)F)c(F)c3)C(=O)N2C1` [PP0811] registered a 50% inhibitory concentration (IC50) in test [1] of 9.8 nM. Besides, in test [2], the “NRAS /KRAS” value was “B (a compound having 3 or more and less than 10 is denoted as B)”. Besides, the “HRAS /KRAS” value at HRAS wild-type protein was “B (a compound having 3 or more and less than 10 is denoted as B)”.
